Results reported in patent publication US9856348B2, “Multifunctional degradable nanoparticles with control over size and functionalities” (Vanderbilt University, priority 2007, dated 2018).

Key:
[1] = tested on: mice with microbead-elevated intraocular pressure
Description: Two groups of mice (N=3 each) were compared to determine the effect of a single intravitreal injection of brimonidine-laced nanoparticle relative to a single topical drop (eyedrop) of clinical-grade brimonidine. For each mouse, intraocular pressure (IOP) was acutely elevated by an injection (1 μl) of polystyrene microbeads into the anterior chamber of the eye. This induces a 35-40% elevation in IOP that persists for 3-4 weeks. […] IOP was tracked using TonoPen XL measurements until any lowering effect was dissipated.

[2] = tested on: human microvascular endothelial cells (HMEC); test: Internalization of FITC-dendrimer conjugates, temperature effect and controls; format: cell-based; settings: 10 uM, 60 min, 37° C.
Description: Internalization of FD-1 and FD-2 in mammalian cells was assessed using two different cell lines and a previously described method [Futaki, S.; Nakase, I.; Suzuki, T.; Youjun, Y.; Sugiura, Y. Biochemistry 2002, 41, 7925.] with NIH-3T3 fibroblasts and HMEC (human microvascular endothelial cells) and a Zeiss LSM 510 confocal microscope. […] [Futaki, S.; Nakase, I.; Suzuki, T.; Youjun, Y.; Sugiura, Y. Biochemistry 2002, 41, 7925.; Vivès, E.; Brodin, P.; Lebleu, B. J. Biol. Chem. 1997, 272, 16010.] Furthermore, the extent of internalization increased in an incubation time-dependent manner, and it was observed that after just 10 min, the fluorescence intensity of cells treated with FD-2 was near saturation. […] L. Org. Lett. 2005, 7, 4815.] but also regulate the subcellular localization of the molecule and its putative cargo. […] Therefore, the dendrimer with a hexyl spacer crosses the cell membrane faster than the molecule with an ethyl chain. On the other hand, the localization patterns can also be controlled by the length of the spacer. FD-1 with the short spacer appeared to be localized everywhere in the cell, but highly concentrated in the nucleus. […] These translocation features of guanidinlyated dendritic scaffolds as carriers can be important for intracellular delivery of cargo molecules to specific subcellular compartments (e.g., cytosol or nucleus). […]

| Compound | IOP one day after application ([1]; single application (1 μl) on day 4 after microbead injection) | time after administration at which IOP returned to elevated levels ([1]; single topical application (1 μl)) | fluorescence of treated cells (control experiments) [2] |
| --- | --- | --- | --- |
| Brc1c(NC2=NCCN2)ccc2nccnc12 [topical brimonidine, 5-Bromo-N-(4,5-dihydro-1H-imidazol-2-yl)quinoxalin-6-amine] | normal levels | Six |  |
| fluorescein isothiocyanate [free FITC] |  |  | no |
